Values of other authors in patent publication CN104352465A, “一种不含二氧化硅的琥珀酸普芦卡必利药物组合物及其制备方法” (CHENGDU SINO-STRONG PHARMACEUTICAL Co Ltd, priority 2014, dated 2015).

Conditions: within shelf life, with the diluent lactose monohydrate

For `COCCCN1CCC(NC(=O)c2cc(Cl)c(N)c3c2OCC3)CC1.O=C(O)CCC(=O)O` [琥珀酸普芦卡必利, 4-氨基-5-氯-2,3-二氢-N-[1-(3-甲氧基丙基)-4-哌啶基]-7-苯并呋喃甲酰胺丁二酸盐], the “adduct formation with lactose monohydrate” value is given as “形成乳糖加合物”.
